In patent EP2975033A1, “Improved cysteine-protease inhibitors” (Universitat Jaume I, priority 2014, dated 2016):
≈ marks a conversion by molar mass, not a printed value. Where “and” joins values, the source holds several entries; their conditions need not be identical. Identical values can stand only once. Like-named read-outs stand apart in the source and are kept apart here.

Assays:
[1] = target: T1, Rhodesain (Trypanosoma brucei rhodesiense, UniProt Q95PM0); assay: Protease assay, fluorogenic substrate Z-Phe-Arg-AMC: Rhodesain; format: biochemical; conditions: for IC50: RD=Rhodesain, 25 °C, pH 5.5, 10µM substrate
T1 construct: made in house
Text: (§1) 2.1.1. Protease Assays as shown in tables 1 and 2: Cathepsin L (human), Cathepsin B (human), Rhodesain (Trypanosoma brucei rhodesiense), Falcipain 2 (Plasmodium falciparum)
(§2) Enzyme assays used to identify inhibitors of the target cysteine proteases. The effect is detected measuring fluorescence increase due to hydrolysis of fluorogenic substrates by the target enzymes in absence and presence of potential inhibitors.
(§3) • a. Proteins (enzymes): • Cathepsin L (human liver) Calbiochem • Cathepsin B (human liver) Calbiochem • Rhodesain: recombinantly expressed according to ref.: Caffrey, C. R.; Hansell, E.; Lucas, K. D.; Brinen, L. S.; Hernandez, A. A.; Cheng, J.; Gwaltney, S. L., II; Roush, W. R.; Stierhof, Y. D.; Bogyo, M.; Steverding, D.; McKerrow, J. H. Active site mapping, biochemical properties and subcellular localization of rhodesain, the major cysteine protease of Trypanosoma • Falcipain 2: recombinantly expressed according to ref.: Pandey, K. C.; Wang, S. X.; Sijwali, P. S.; Lau, A. L.; McKerrow, J. H.; Rosenthal, P. J. The Plasmodium falciparum cysteine protease falcipain-2 captures its substrate, hemoglobin, via a unique motif. Proc. Natl. Acad. Sci. U.S.A. 2005, 102, 9138-9143. • b. Buffers: • Cathepsin B: 50 mM Tris-Puffer pH 6.5 mit 2 mM DTT, 5 mM EDTA, 200 mM NaCl, 0.005% Brij35 • Cathepsin L: 50 mM Tris-Puffer pH 6.5 mit 2 mM DTT, 5 mM EDTA, 200 mM NaCl, 0.005% Brij35 • Rhodesain: 50 mM Acetat-Puffer pH 5.5 mit 5 mM DTT, 5 mM EDTA, 200 mM NaCl, 0.005% Brij35 • Falcipain 2: 50 mM Acetat-Puffer pH 5.5 mit 5 mM DTT, 5 mM EDTA, 200 mM NaCl, 0.005% Brij35 • c. Substrates: • Cathepsin L: 6,25 µM Z-Phe-Arg-7-amino-4-methylcumarin, HCl von Bachem, Ex 380 nm, Em 460 nm • Cathepsin B: 100 µM Z-Phe-Arg-7-amino-4-methylcumarin, HCl von Bachem, Ex 380 nm, Em 460 nm • Rhodesain: 10µM Z-Phe-Arg-7-amino-4-methylcumarin, HCl von Bachem, Ex 380 nm, Em 460 nm • Falcipain 2: 25µM Z-Phe-Arg-7-amino-4-methylcumarin, HCl von Bachem, Ex 380 nm, Em 460 nm • Reference substance(s)/positive control(s): E64 • d. Solvent for inhibitors and substrates: DMSO 99,5% (GC) DC4540, Sigma • e. Measurement device: Tecan Fluorescence spectrophotometer infinite F200 Pro • f. Well plates: 96 well plates, Lia-Plate White, Greiner bio-one, flat bottom, high binding • g. Methodology: Substrates and inhibitor stock solutions are prepared in DMSO and diluted with the respective assay buffer (final DMSO concentration: […]). Enzyme stock solutions are diluted with assay buffer to yield a fluorescence increase of dF/min ≈ _20. Total volume: 200 µL (180 µL of assay buffer, 5 µL of enzyme solution, 10 µL of DMSO or inhibitor solution, 5 µL of substrate solution). Assays are started by the addition of substrate solution. Fluorescence increase is detected over a period of 10 - 30 min, depending on time dependent (30 min) or non-time dependent (10 min) inhibition. • h. Temp: 25 °C • i. DATA-[…] • Software: Grafit 5.013 • Ki values are calculated from IC50 values (obtained by the 4-parameter IC50 equation) using the Chen-Prusoff equation: Ki=IC50/(1 + [S]/Km)
(§4) In vitro inhibition of cysteine-proteases cruzain (CR) (Trypanosoma cruzi (T. cruzi)), rhodesain (RD) (T. brucei), cathepsin B (CB), falcipain (FP2) (Plasmodium falciparum) and cathepsin L (CL) was assessed by quantification of the resulting fluorescence emission of the proteolytic breakdown of synthetic compound Z-Phe-Arg-AMC (Bachem). The results of this determination are shown in tables 1 and 2 illustrated above.

[2] = target: T2, Cathepsin L (human) (Homo sapiens, UniProt P07711); assay: Protease assay, fluorogenic substrate Z-Phe-Arg-AMC: Cathepsin L; format: biochemical
T2 construct: Cathepsin L (human liver) Calbiochem; purchased Calbiochem; host or cells: human liver (tissue-derived)
Text: as §1, §2, §3, §4

[3] = target: T3, Falcipain 2 (Plasmodium falciparum, UniProt Q8I6U4); assay: Protease assay, fluorogenic substrate Z-Phe-Arg-AMC: Falcipain 2; format: biochemical; conditions: FP2=Falcipain2
T3 construct: made in house
Text: as §1, §2, §3, §4

[4] = target: T4, Cathepsin B (human) (Homo sapiens, UniProt P07858); assay: Protease assay, fluorogenic substrate Z-Phe-Arg-AMC: Cathepsin B; format: biochemical; conditions: CB=CathepsinB; for IC50: 25 °C, pH 6.5, 100 µM substrate, read-out: CBIC50micM
T4 construct: Cathepsin B (human liver) Calbiochem; purchased Calbiochem; host or cells: human liver (tissue-derived)
Text: as §1, §2, §3, §4

[5] = target: cruzain (CR) (Trypanosoma cruzi, UniProt P25779); assay: In vitro inhibition of cruzain, fluorescence of Z-Phe-Arg-AMC breakdown; format: biochemical
Description: as §2, §4

[6] = system: L. donovani strain MHOM/ET/67/L82; assay: Activity against L. donovani axenic amastigotes (Alamar Blue); format: cell-based
Description: For all the susceptibility assays with parasites and cells, each drug was tested in duplicate and each assay was repeated at least once. • a. Activity against Trypanosoma brucei rhodesiense STIB900. This stock was isolated in 1982 from a human patient in Tanzania and after several mouse passages cloned and adapted to axenic culture conditions (Baltz et al 1985) Minimum Essential Medium (50 µl) supplemented with 25 mM HEPES, 1g/l additional glucose, 1% MEM non-essential amino acids (100x), 0.2 mM 2-mercaptoethanol, 1 mM Na-pyruvate and 15% heat inactivated horse serum was added to each well of a 96-well microtiter plate. Serial drug dilutions of eleven 3-fold dilution steps covering a range from 100 to 0.002 µg/ml were prepared. Then 4x10^3 bloodstream forms of T. b. rhodesiense STIB 900 in 50 µl was added to each well and the plate incubated at 37 °C under a 5 % CO2 atmosphere for 70 h. 10 µl Alamar Blue (resazurin, 12.5 mg in 100 ml double-distilled water) was then added to each well and incubation continued for a further 2-4 h (Raz et al 1997). Then the plates were read with a Spectramax Gemini XS microplate fluorometer (Molecular Devices Cooperation, Sunnyvale, CA, USA) using an excitation wave length of 536 nm and an emission wave length of 588 nm. The IC50 values were calculated by linear regression (Huber 1993) from the sigmoidal dose inhibition curves using SoftmaxPro software (Molecular Devices Cooperation, Sunnyvale, CA, USA). Melarsoprol (Arsobal Sanofi-Aventis, received from WHO) is used as control. • b. Activity against T. cruzi. Rat skeletal myoblasts (L-6 cells) were seeded in 96-well microtitre plates at 2000 cells/well in 100 µL RPMI 1640 medium with 10% FBS and 2 mM I-glutamine. After 24 h the medium was removed and replaced by 100 µl per well containing 5000 trypomastigote forms of T. cruzi Tulahuen strain C2C4 containing the β-galactosidase (Lac Z) gene (Buckner et al. 1996). After 48 h the medium was removed from the wells and replaced by 100 µl fresh medium with or without a serial drug dilution of eleven 3-fold dilution steps covering a range from 100 to 0.002 µg/ml. After 96 h of incubation the plates were inspected under an inverted microscope to assure growth of the controls and sterility. Then the substrate CPRG/Nonidet (50 µl) was added to all wells. A color reaction developed within 2-6 h and could be read photometrically at 540 nm. Data were analyzed with the graphic programme Softmax Pro (Molecular Devices), which calculated IC50 values by linear regression (Huber 1993) from the sigmoidal dose inhibition curves. […] Activity against L. donovani axenic amastigotes. Amastigotes of L. donovani strain MHOM/ET/67/L82 were grown in axenic culture at 37 °C in SM medium (Cunnigham et al. 1977) at pH 5.4 supplemented with 10% heat-inactivated fetal bovine serum under an atmosphere of 5% CO2 in air. One hundred microlitres of culture medium with 10^5 amastigotes from axenic culture with or without a serial drug dilution were seeded in 96-well microtitre plates. Serial drug dilutions of eleven 3-fold dilution steps covering a range from 90 to 0.002 µg/ml were prepared. After 70 h of incubation the plates were inspected under an inverted microscope to assure growth of the controls and sterile conditions. 10 µl of Alamar Blue (12.5 mg resazurin dissolved in 100 ml distilled water) (Mikus and Steverdig. 2000) were then added to each well and the plates incubated for another 2 h. Then the plates were read with a Spectramax Gemini XS microplate fluorometer (Molecular Devices Cooperation, Sunnyvale, CA, USA) using an excitation wave length of 536 nm and an emission wave length of 588 nm. Data were analyzed using the software Softmax Pro (Molecular Devices Cooperation, Sunnyvale, CA, USA). Decrease of fluorescence (= inhibition) was expressed as percentage of the fluorescence of control cultures and plotted against the drug concentrations. From the sigmoidal inhibition curves the IC50 values were calculated. • d.

[7] = CL=CathepsinL; 25 °C, pH 6.5, 6,25 µM substrate; read-out: CL(IC50)
[8] = read-out: CL(IC50); CL=CathepsinL; 25 °C, pH 6.5, 6,25 µM substrate

T3 sequence (Q8I6U4 244-484): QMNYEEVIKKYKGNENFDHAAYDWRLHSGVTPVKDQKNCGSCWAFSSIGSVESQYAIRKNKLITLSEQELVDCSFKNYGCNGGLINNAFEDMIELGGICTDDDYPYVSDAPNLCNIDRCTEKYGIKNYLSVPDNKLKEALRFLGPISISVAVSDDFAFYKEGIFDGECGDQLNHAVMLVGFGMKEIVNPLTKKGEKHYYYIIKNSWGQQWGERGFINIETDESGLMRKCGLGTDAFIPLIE
T1 sequence (Q95PM0 entry or part of it): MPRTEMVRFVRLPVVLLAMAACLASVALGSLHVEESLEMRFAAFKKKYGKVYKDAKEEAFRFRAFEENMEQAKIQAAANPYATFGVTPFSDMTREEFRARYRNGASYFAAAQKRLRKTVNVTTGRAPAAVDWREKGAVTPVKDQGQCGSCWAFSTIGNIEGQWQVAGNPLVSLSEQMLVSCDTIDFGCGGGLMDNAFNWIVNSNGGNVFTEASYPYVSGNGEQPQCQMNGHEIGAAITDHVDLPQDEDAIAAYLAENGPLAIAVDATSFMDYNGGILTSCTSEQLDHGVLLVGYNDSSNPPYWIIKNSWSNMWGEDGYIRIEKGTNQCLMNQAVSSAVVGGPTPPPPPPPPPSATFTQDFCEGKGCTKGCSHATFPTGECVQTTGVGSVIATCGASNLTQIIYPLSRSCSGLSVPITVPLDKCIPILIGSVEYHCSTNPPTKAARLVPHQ
Chain of cruzain (CR) (P25779 123-467): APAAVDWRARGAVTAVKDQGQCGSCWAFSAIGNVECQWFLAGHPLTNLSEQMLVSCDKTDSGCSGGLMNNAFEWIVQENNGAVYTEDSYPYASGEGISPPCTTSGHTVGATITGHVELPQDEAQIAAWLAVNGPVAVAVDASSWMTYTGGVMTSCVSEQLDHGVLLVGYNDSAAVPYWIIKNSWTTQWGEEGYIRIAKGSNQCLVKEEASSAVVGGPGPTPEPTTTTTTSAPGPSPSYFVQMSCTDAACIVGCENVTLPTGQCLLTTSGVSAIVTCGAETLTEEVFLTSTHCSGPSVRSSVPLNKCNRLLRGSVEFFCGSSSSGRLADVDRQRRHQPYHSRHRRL
T2 sequence (P07711 114-333): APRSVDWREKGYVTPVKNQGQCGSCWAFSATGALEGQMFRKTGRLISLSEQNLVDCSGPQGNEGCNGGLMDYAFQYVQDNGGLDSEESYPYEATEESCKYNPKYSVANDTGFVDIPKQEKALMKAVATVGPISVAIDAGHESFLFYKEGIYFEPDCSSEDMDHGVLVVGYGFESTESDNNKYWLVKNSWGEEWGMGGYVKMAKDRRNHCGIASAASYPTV

CCOC(=O)/C=C/[C@@H](O)[C@H](CCc1ccccc1)NC(=O)[C@H](Cc1ccccc1)NC(=O)OCc1ccccc1
RD(K2nd(M-1s-1)) [1]: 3207 M⁻¹ s⁻¹ | IC50 [1]: 9500 nM | CL(K2nd(M-1s-1)) ([2]; CL=CathepsinL): 1127 M⁻¹ s⁻¹ | IC50 [2, 7]: 13000 nM | FP2(K2nd(M-1s-1)) [3]: 557 M⁻¹ s⁻¹ | CB(K2nd(M-1s-1)) [4]: 772 M⁻¹ s⁻¹ | IC50 [4]: 24000 nM

CCOC(=O)/C=C/[C@@H](O)[C@H](C)NC(=O)[C@H](Cc1ccccc1)NC(=O)OCc1ccccc1
RD(K2nd(M-1s-1)) [1]: 10951 M⁻¹ s⁻¹ | IC50 [1]: 45100 nM | CL(K2nd(M-1s-1)) ([2]; CL=CathepsinL): 828 M⁻¹ s⁻¹ | IC50 [2, 7]: 14300 nM | FP2(K2nd(M-1s-1)) [3]: 2,735 M-1s-1

CCOC(=O)/C=C/C(=O)[C@H](C)NC(=O)[C@H](Cc1ccccc1)NC(=O)OCc1ccccc1
RD(K2nd(M-1s-1)) [1]: 6481 M⁻¹ s⁻¹ | IC50 [1]: 590 nM | CL(K2nd(M-1s-1)) ([2]; CL=CathepsinL): 197273 M⁻¹ s⁻¹ | IC50 [2, 8]: 90 nM | FP2(K2nd(M-1s-1)) [3]: 28285 M⁻¹ s⁻¹ | CR(K2nd(M-1s-1)) [5]: 139583 M⁻¹ s⁻¹ | IC50 [5]: 290 nM | CB(K2nd(M-1s-1)) [4]: 4738 M⁻¹ s⁻¹ | IC50 [4]: 140 nM

CCOC(=O)/C=C/C(=O)[C@H](C)NC(=O)[C@H](CC(C)C)NC(=O)OCc1ccccc1
RD(K2nd(M-1s-1)) [1]: 14207 M⁻¹ s⁻¹ | IC50 [1]: 800 nM | CL(K2nd(M-1s-1)) ([2]; CL=CathepsinL): 9821 M⁻¹ s⁻¹ | IC50 [2, 8]: 550 nM | FP2(K2nd(M-1s-1)) [3]: 12013 M⁻¹ s⁻¹ | IC50 ([3]; 25 °C, pH 5.5, 25µM substrate): 1180 nM | CR(K2nd(M-1s-1)) [5]: 14412 M⁻¹ s⁻¹ | IC50 [5]: 630 nM | CB(K2nd(M-1s-1)) [4]: 85470 M⁻¹ s⁻¹ | IC50 [4]: 70 nM

CCCCCCCCCCCCCCCCOP(=O)([O-])OCC[N+](C)(C)C [Miltefosine, reference compound]
IC50 ([6]; Leishmania donovani, 70 h, pH 5.4, replicate 2, axenic amastigotes, pH 5.4, 70 h, read-out: L.don. ax am IC50 repl2): 0.071 µg/mL (≈ 0.174 µM) | L.don. ax am IC50 mean ([6]; mean of replicates): 0,059 micrograms/mL and 1,44 micrograms/mL | L.don. ax am IC50 repl1 ([6]; replicate 1, axenic amastigotes, pH 5.4, 70 h): 0,046 micrograms/mL and 1,44 micrograms/mL

CCOC(=O)/C=C/C(=O)[C@H](CCc1ccccc1)NC(=O)[C@H](Cc1ccccc1)NC(=O)OCc1ccccc1 [drawing 38]
RD(K2nd(M-1s-1)) [1]: 1274510 M⁻¹ s⁻¹ | IC50 [1]: 30.7 nM | CL(K2nd(M-1s-1)) ([2]; CL=CathepsinL): 45364 M⁻¹ s⁻¹ | IC50 [2, 7]: 50 nM | FP2(K2nd(M-1s-1)) [3]: 17099 M⁻¹ s⁻¹ | CB(K2nd(M-1s-1)) [4]: 45486 M⁻¹ s⁻¹ | IC50 [4]: 70 nM

CCOC(=O)/C=C/C(=O)[C@H](CCc1ccccc1)NC(=O)[C@H](CC(C)C)NC(=O)OCc1ccccc1 [drawing 39]
RD(K2nd(M-1s-1)) [1]: 116147 M⁻¹ s⁻¹ | IC50 [1]: 145 nM | CL(K2nd(M-1s-1)) ([2]; CL=CathepsinL): 29885 M⁻¹ s⁻¹ | IC50 [2, 8]: 257 nM | FP2(K2nd(M-1s-1)) [3]: 6035 M⁻¹ s⁻¹ | CR(K2nd(M-1s-1)) [5]: 60784 M⁻¹ s⁻¹ | IC50 [5]: 77 nM | CB(K2nd(M-1s-1)) [4]: 42393 M⁻¹ s⁻¹ | IC50 [4]: 50 nM
